For assay [1], the system named is Canis familiaris. In words: Inhibition of gastric acid secretion stimulated by histamine in dog was determined by peroral administration; IA means inactive oral dose of 8 mg/kg. It is filed as functional, organism-based. The arrangement: dose 8 mg/kg. The settings on record: Canis lupus familiaris; Stomach.
The subject of assay [2] is Rattus norvegicus. In words: Cytoprotective activity against ethyle alcohol induced ulcers was determined in rats by peroral administration of the compound. The following applies: po. It is filed as functional.
The species named for assay [3] is Mus musculus. Nature of the assay: Organ weight ratio was determined for the compound :control.
In assay [4] the test system is Mus musculus. In words: Organ weight (stomach) was determined after administration of the compound.
For assay [5], the species on record is Mus musculus. Nature of the assay: Histopathology of the stomach was determined; N means normal variation in the presence of the compound.
For assay [6], the species on record is Mus musculus. Nature of the assay: Organ weight ratio was determined for the compound with respect to (8-Benzyloxy-2-methyl-imidazo[1,2-a]pyridin-3-yl) compound.
Assay [7] deals with Canis familiaris. Nature of the assay: Inhibition of gastric acid secretion stimulated by histamine in dog was determined by peroral administration; value ranges from 2.3-59.2. It is filed as functional. The following applies: Canis lupus familiaris, Stomach, po.
Assay [8] has as its system Canis familiaris. In words: Inhibition of gastric acid secretion stimulated by histamine in dog was determined by peroral administration of the compound. It is filed as functional. The settings on record: Canis lupus familiaris, Stomach, po.
The species named for assay [9] is Mus musculus. Nature of the assay: Histopathology of the stomach was determined as HGM (Hyperplasia of grandular mucosa)in the presence of the compound.
For assay [10], the system named is Canis familiaris. In words: Inhibition of gastric acid secretion stimulated by histamine in dog was determined by peroral administration; value ranges from 3.2-50.6. The assay is classed as functional. The following applies: Canis lupus familiaris, Stomach, po.
Assay [11] deals with Canis familiaris. In words: Inhibition of gastric acid secretion stimulated by histamine in dog was determined by peroral administration; IA means inactive. It is filed as functional, organism-based. The following applies: Canis lupus familiaris; Stomach.
Assay [12] relates to Canis familiaris. In words: Inhibition of gastric acid secretion stimulated by histamine in dog was determined by peroral administration; the regression was not significant. The assay is classed as functional. The following applies: Canis lupus familiaris, Stomach, po.
Assay [13] deals with Canis familiaris. In words: Inhibition of gastric acid secretion stimulated by histamine in dog was determined by peroral administration; value ranges from 0.6-3.9. The assay is classed as functional. The following applies: Canis lupus familiaris, Stomach, po.
In assay [14] the test system is Canis familiaris. Nature of the assay: Inhibition of gastric acid secretion stimulated by histamine in dog was determined by peroral administration confidence limits (p=0.05.); value ranges from 2.1-14.0. It is filed as functional. The settings on record: Canis lupus familiaris, Stomach, po.
The species entered for assay [15] is Mus musculus. Nature of the assay: Histopathology of the stomach was determined as HGM (Hyperplasia of grandular mucosa) in the presence of the compound.
In assay [16] the test system is Canis familiaris. Nature of the assay: Percent inhibition of Histamine stimulated gastric acid secretion at oral dosage of 4 mg/kg. The assay is classed as functional. The following applies: Canis lupus familiaris, Stomach.
For assay [17], the system named is Canis familiaris. Nature of the assay: Percent inhibition of Histamine stimulated gastric acid secretion at oral dosage of 8 mg/kg. It is filed as functional. The following applies: Canis lupus familiaris, Stomach.
Assay [18] relates to Rattus norvegicus. In words: Cytoprotective activity against ethyle alcohol induced ulcers was determined in rats by peroral administration; IA means inactive. The assay is classed as functional, organism-based.
Assay [19] concerns Canis familiaris. Nature of the assay: Percent inhibition of Histamine -stimulated gastric acid secretion at the oral dosage of 4 mg/kg. The assay is classed as functional. The following applies: Canis lupus familiaris, Stomach.
Assay [20] concerns Canis familiaris. Nature of the assay: Percent inhibition of Histamine -stimulated gastric acid secretion at the oral dosage of 8 mg/kg. It is filed as functional. The settings on record: Canis lupus familiaris, Stomach.

The record followed here is ChEMBL document CHEMBL1123917, “Antiulcer agents. 3. Structure-activity-toxicity relationships of substituted imidazo[1,2-a]pyridines and a related imidazo[1,2-a]pyrazine” (1987).

Molecules are shown by their SMILES. Calls of active or inactive are those of the source. No cut-off for these calls is given here. Bounds are passed on as bounds.

The term ED50 denotes the dose that gives a 50% effect, or the effect in half of the subjects. Turning to `Cc1nc2ccc(CCc3ccccc3)cn2c1CC#N`, the ED50 entry with Canis familiaris [1] is “inactive”. Besides, in the assay on Rattus norvegicus [2], the 50% effect level (ED50) was put at a dose of 2.7 mg/kg. The Organ weight ratio in the assay filed under Mus musculus [3] was found to be 1; in the assay listed under Mus musculus [6], 0.7. Further, the Organ weight with Mus musculus [4] is listed as 0.81 g. For the same molecule, the Histopathology entry in the assay listed under Mus musculus [5] is “Within normal variation”.
Regarding `Cc1nc2c(CCc3ccccc3)cccn2c1N`, the ED50 in the assay with Canis familiaris [7] came to 6.8 mg/kg; in the assay on Rattus norvegicus [2], 9 mg/kg. Further, the Organ weight ratio in the assay filed under Mus musculus [3] is 1.1; in the assay listed under Mus musculus [6], 0.8. This molecule showed an Organ weight in the assay on Mus musculus [4] of 0.88 g. In addition, the Histopathology entry in the assay listed under Mus musculus [5] is “Within normal variation”.
With `Cc1nc2c(NCc3ccccc3)cccn2c1CC#N`, the ED50 with Canis familiaris [8] worked out at 6.7 mg/kg; in the assay with Rattus norvegicus [2], 2 mg/kg. The Organ weight ratio in the assay filed under Mus musculus [3] came out at 1.2; in the assay filed under Mus musculus [6], 0.8. In the assay with Mus musculus [4], this molecule came in with an Organ weight of 0.9 g. For the same molecule, the Histopathology result in the assay listed under Mus musculus [9] was “Hyperplasia of glandular mucosa”.
Take `Cc1ccn2c(CC#N)c(C)nc2c1OCc1ccccc1`: the ED50 with Rattus norvegicus [2] is 13 mg/kg; in the assay with Canis familiaris [10] it was 7.1 mg/kg. Besides, the Organ weight ratio came out at 1.1 in the assay filed under Mus musculus [3] and 0.8 in the assay filed under Mus musculus [6]. The same molecule displayed an Organ weight in the assay on Mus musculus [4] of 0.9 g. In the assay listed under Mus musculus [5], the Histopathology result was “Within normal variation”.
For the molecule `Cc1cn2cccc(OCc3ccccc3)c2n1`, in the assay with Canis familiaris [11], the ED50 result is “inactive”. Besides, in the assay on Rattus norvegicus [2], the ED50 was determined as 4 mg/kg. Moreover, the Organ weight ratio in the assay filed under Mus musculus [3] was determined as 1; in the assay listed under Mus musculus [6] it was 0.7. The Organ weight with Mus musculus [4] was determined as 0.84 g. In addition, the Histopathology result in the assay filed under Mus musculus [5] was “Within normal variation”.
For the molecule `Cc1nc2c(OCc3ccccc3)cccn2c1N`, the ED50 in the assay on Canis familiaris [12] was 2 mg/kg; with Rattus norvegicus [2], 6 mg/kg. In addition, the Organ weight ratio in the assay filed under Mus musculus [3] came to 1.2; in the assay listed under Mus musculus [6] it was 1. In the assay on Mus musculus [4], this molecule had an Organ weight of 1.09 g. Moreover, the Histopathology result in the assay filed under Mus musculus [9] is recorded as “Hyperplasia of glandular mucosa”.
Consider `Cc1nc2c(OCc3ccccc3)nccn2c1N`, for which the 50% effective dose (ED50) in the assay with Canis familiaris [13] was 1.4 mg/kg; in the assay with Rattus norvegicus [2], 5 mg/kg. In addition, the Organ weight ratio is on record as 1.1 in the assay listed under Mus musculus [3] and 0.8 in the assay filed under Mus musculus [6]. In the assay on Mus musculus [4], this molecule came in with an Organ weight of 0.86 g. Besides, the Histopathology result in the assay filed under Mus musculus [5] was “Within normal variation”.
For the molecule `Cc1nc2c(OCc3ccccc3)cccn2c1CC#N`, the median effective dose (ED50) is 4.4 mg/kg with Canis familiaris [14] and 3 mg/kg with Rattus norvegicus [2]. For the same molecule, the Organ weight ratio in the assay listed under Mus musculus [3] is listed as 1.4; in the assay listed under Mus musculus [6], 1. The same molecule returned an Organ weight with Mus musculus [4] of 1.13 g. In addition, in the assay listed under Mus musculus [9], the Histopathology entry is given as “Hyperplasia of glandular mucosa”.
Regarding `Cc1cn2c(OCc3ccccc3)cccc2n1`, the ED50 result in the assay with Canis familiaris [11] is “inactive”. Besides, in the assay on Rattus norvegicus [2], the 50% effective dose (ED50) came out at 1 mg/kg. Also, the Organ weight ratio in the assay filed under Mus musculus [3] turned out to be 0.9; in the assay listed under Mus musculus [6], 0.7. This molecule returned an Organ weight in the assay on Mus musculus [4] of 0.76 g. Moreover, the Histopathology result in the assay filed under Mus musculus [5] is “Within normal variation”.
Regarding `Cc1nc2c(OCc3ccsc3)cccn2c1CC#N`, the ED50 came to 2.7 mg/kg with Canis familiaris [8] and 2 mg/kg with Rattus norvegicus [2]. For the same molecule, the Organ weight ratio in the assay listed under Mus musculus [3] stood at 1.5; in the assay filed under Mus musculus [6], 1. The same molecule yielded an Organ weight in the assay with Mus musculus [4] of 1.12 g. In addition, the Histopathology result in the assay filed under Mus musculus [15] is reported as “Hyperplasia of glandular mucosa”.
In the case of `Cc1nc2ccc(CCc3ccccc3)cn2c1N`, in the assay with Canis familiaris [11], the ED50 entry was “inactive”. This molecule showed a 50% effective dose (ED50) in the assay with Rattus norvegicus [2] of 5.7 mg/kg. Also, the Organ weight ratio in the assay filed under Mus musculus [3] turned out to be 1; in the assay listed under Mus musculus [6], 0.7. Further, the Organ weight in the assay with Mus musculus [4] is given as 0.81 g. In the assay filed under Mus musculus [5], the Histopathology entry is “Within normal variation”.
Broadly, the inhibition in vivo is the share of the control response that was lost under treatment. A lower inhibition in vivo goes with a weak effect. Take `Cc1c(CC#N)nc2c(OCc3ccccc3)cccn12`: in the assay on Canis familiaris [16], testing at 4 mg/kg gave an inhibition in vivo of 19%. The molecule also gave an inhibition in vivo at 8 mg/kg with Canis familiaris [17] of 91%. This molecule also yielded an ED50 in the assay on Canis familiaris [8] of more than 4.4 mg/kg. In addition, the ED50 result with Rattus norvegicus [18] is “inactive”. Besides, the Organ weight ratio in the assay listed under Mus musculus [3] came out at 1.2; in the assay filed under Mus musculus [6], 0.9. For the same molecule, the Organ weight with Mus musculus [4] turned out to be 0.98 g. For the same molecule, the Histopathology entry in the assay listed under Mus musculus [9] is on record as “Hyperplasia of glandular mucosa”.
As for `Cc1nc2c(CCc3ccccc3)cccn2c1CC#N`, testing at 4 mg/kg with Canis familiaris [19] gave an inhibition in vivo of 3%. The median effective dose (ED50) in the assay on Canis familiaris [8] was more than 4.4 mg/kg; with Rattus norvegicus [2] it was 7 mg/kg. Besides, testing at 8 mg/kg in the assay with Canis familiaris [20] gave an inhibition in vivo of 83%. The Organ weight ratio in the assay listed under Mus musculus [3] worked out at 1.2; in the assay filed under Mus musculus [6] it was 0.9. This molecule also yielded an Organ weight in the assay on Mus musculus [4] of 0.99 g. For the same molecule, the Histopathology result in the assay listed under Mus musculus [9] is listed as “Hyperplasia of glandular mucosa”.
As for `Cc1nc2c(O)cccn2c1CC#N`, the ED50 entry in the assay on Canis familiaris [11] and in the assay with Rattus norvegicus [18] was “inactive” each time. The Organ weight ratio stood at 1 in the assay listed under Mus musculus [3] and 0.7 in the assay filed under Mus musculus [6]. Besides, the Organ weight in the assay with Mus musculus [4] is 0.8 g. Also, the Histopathology entry in the assay listed under Mus musculus [5] is reported as “Within normal variation”.
